{"source": "paper PMC9227536", "about": "“Prediction of Pharmacokinetics of IDP-73152 in Humans Using Physiologically-Based Pharmacokinetics” (Pharmaceutics, 2022)", "key": {"[1]": {"test": "Metabolic stability in liver microsomes, rat", "type": "in vitro ADME", "experimental": "In this study, the metabolic stability of IDP-73152 in microsomes from mice, rats, dogs, and humans, as well as rat hepatocytes, was determined. For a microsomal incubation study, the incubation mixtures, containing mouse, rat, dog, or human liver microsomes at a protein concentration of 0.5 mg/mL, 3.3 mM MgCl2, and 1.3 mM NADPH, in a 100 mM potassium phosphate buffer (pH 7.4), were preincubated for 3 min at 37 °C. In parallel, a control incubation mixture (i.e., identical composition to that of the incubation mixture without NADPH) was also prepared for comparison. The reaction was initiated by the addition of a 10 × solution of IDP-73152 (final concentration in mixtures of 1 μM) to the incubation mixtures or the control incubation mixtures. The mixtures were incubated in a shaking water bath (37 °C, 90 rpm). Aliquots (30 μL) were collected at 0, 15, 30, and 45 min from the mixture and the reaction was terminated by the addition of a 4-fold volume of ice-cold acetonitrile to the sample. The mixture was then vortexed for 5 min and centrifuged for 10 min at 10,000× g. The supernatant was collected and stored at -80 °C until the analysis. For the hepatocyte incubation study, rat hepatocytes were freshly prepared using the two-step collagenase perfusion method with slight modifications. After the isolation, cell viability during the preparation process was first determined by a trypan blue exclusion assay prior to the stability study. The preparation was considered adequate for subsequent studies if the viability was greater than 80%. When appropriate, the hepatocytes were resuspended in Williams' media E containing 10% fetal bovine serum, 1% penicillin-streptomycin, and 0.01% insulin-transferrin-selenium (i.e., 10 mg/mL insulin, 5.5 mg/mL transferrin, and 5 mg/mL selenium) at pH 7.4. The reaction was carried out with the hepatocyte suspension prepared at 1 × 10^6 cells/mL (0.5 mL) and initiated by the addition of equal volume of IDP-73152 solution (i.e., final concentration of the compound at 1 μM in 0.5 × 10^6 cells/mL of hepatocytes) to the hepatocyte suspension. […] Assuming first-order disappearance kinetics, the slope k of the logarithmically transformed IDP-73152 concentration in the sample versus time plot was determined by the linear regression analysis of the data. The total intrinsic clearance (CLint,mic, μL/min/mg protein for microsomal incubation study and CLint,hep, μL/min/million cells for hepatocytes incubation study) was then calculated using the following equations:(4) CLint, mic=k×Volume of incubation medium (μL)/Protein in incubation medium (mg) (5) CLint,hep=k×Volume of incubation (μL)/Number of cells in incubation (×10^6) The unbound intrinsic clearance, with respect to the whole liver ([…]), was then estimated for the two cases. […]"}, "[2]": {"test": "Biliary and renal excretion in bile duct-cannulated rats", "type": "in vivo", "conditions": "intravenous 5 mg/kg, up to 8 h", "experimental": "Male Sprague Dawley rats (Orient Bio Inc., Seongnam, Korea), weighing 194.7 g to 205.4 g, were used in this study. IDP-73152 was administered to rats at a single dose of 2.5, 5, or 10 mg/kg via tail vein injection (the injection volume fixed at 2 mL/kg in saline). […] Blood samples (100 μL) were collected from the jugular vein at 0.167, 0.33, 0.5, 1, 2, 4, and 8 h after the administration. Plasma was separated/collected by centrifugation of the blood samples for 5 min at 10,000× g/4 °C and stored at −80 °C until analysis. When necessary, the biliary and renal excretion of IDP-73152 were studied in bile duct-cannulated rats after the intravenous injection (5 mg/kg) to investigate its route(s) of excretion in rats. Bile and urine samples were collected up to 8 h (i.e., approximately 5 times of the terminal phase half-life) after the administration and the samples were stored at −80 °C until the analysis. The cumulative excretion of the bile and the urine to infinite time was determined by assuming that the excretion was practically completed by the last collection time."}, "[3]": {"test": "Blood partitioning (LC-MS/MS-based depletion method), human", "type": "in vitro ADME", "conditions": "whole blood, humans blood, 0.3, 1, 3 μM, read-out: BP (blood-to-plasma concentration ratio)", "experimental": "In this study, the partitioning of IDP-73152 in blood samples obtained from mice, rats, dogs, and humans was determined using the LC-MS/MS-based depletion method with slight modifications. DP-73152 was added to an aliquot (1 mL) of blank blood or plasma at a final concentration of 0.3, 1, or 3 μM. The mixture was incubated at 37 °C in a water bath for 60 min. After the incubation, the plasma was separated by centrifugation of the blood samples for 5 min at 10,000× g/4 °C and stored at -80 °C until analysis. The blood-to-plasma concentration ratio (BP) was calculated using the equation:(3) BP=[…], where […] is the concentration of the compound at the corresponding blood concentration in the plasma, and CPL is the concentration from the plasma sample separated from the incubated blood."}}}
{"smiles": "CC(C)(C)[C@H](NC(=O)[C@H](CC1CCCC1)CN(O)C=O)C(=O)N1CCC(NCc2cc(F)c(F)cc2F)CC1", "note": "[IDP-73152]", "values": [{"measurement": "CLhep predicted at 1 μM", "setting": "[1]; rat, liver microsomes, pH 7.4, rats, read-out: CLh calculated from the CLint,mic (converted)", "value": 28.2, "unit": "mL/min/kg"}, {"measurement": "microsomal CLint at 1 μM", "setting": "[1]; rat, pH 7.4, rats liver microsomes 0.5 mg/mL, 1 μM, read-out: CLint,mic", "value": "72 ± 2.6", "unit": "µL/min/mg"}, {"measurement": "hepatic ER (extraction ratio)", "setting": "[1]; rats, from microsomal clearance, well-stirred model", "value": "0.222 ± 0.006"}, {"measurement": "CLu,int,H", "setting": "[1]; rats, scaled up to the whole liver from microsomes", "value": "7.46 ± 0.27", "unit": "L/h"}, {"measurement": "biliary recovery of intact drug", "setting": "[2]", "value": "0.512 ± 0.154 % of the dose"}, {"measurement": "urinary recovery of intact drug", "setting": "[2]", "value": "1.21 ± 0.48 % of the dose"}, {"measurement": "blood plasma ratio at 60 min", "setting": "[3]", "value": "1.24 ± 0.08"}]}
